Experimental data taken from ChEMBL document CHEMBL1137086, “Identification of compounds with nanomolar binding affinity for checkpoint kinase-1 using knowledge-based virtual screening” (J Med Chem, 2004).

Molecular target: T1, Serine/threonine-protein kinase Chk1 (Homo sapiens, UniProt O14757)
T1 sequence (O14757 whole entry): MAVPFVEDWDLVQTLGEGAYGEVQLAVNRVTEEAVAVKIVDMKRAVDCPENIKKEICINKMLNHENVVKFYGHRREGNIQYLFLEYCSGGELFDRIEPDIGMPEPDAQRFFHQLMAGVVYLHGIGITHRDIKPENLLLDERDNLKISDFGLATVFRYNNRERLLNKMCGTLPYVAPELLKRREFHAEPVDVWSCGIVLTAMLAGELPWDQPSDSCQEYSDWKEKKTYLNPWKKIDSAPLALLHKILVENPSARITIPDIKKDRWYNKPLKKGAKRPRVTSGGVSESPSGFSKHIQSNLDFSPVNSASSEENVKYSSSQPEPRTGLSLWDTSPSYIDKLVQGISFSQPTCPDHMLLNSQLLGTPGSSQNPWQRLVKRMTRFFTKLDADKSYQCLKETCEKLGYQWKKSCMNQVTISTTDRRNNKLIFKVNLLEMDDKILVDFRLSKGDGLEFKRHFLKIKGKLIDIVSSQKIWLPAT
Assay: Inhibition of checkpoint kinase-1

Row | SMILES | IC50
1 | N#Cc1ccc2c(c1)NC(=O)C2c1ncnc2cc(OCCCN3CCOCC3)ccc12 (configuration not stated) | 4000 nM
2 | COc1ccc(Nc2nc(Nc3ccc(C(=O)O)cc3)ncc2Br)cc1 | 450 nM
